In PMC10285260, “Processive kinetics in the three-step lanosterol 14α-demethylation reaction catalyzed by human cytochrome P450 51A1” (The Journal of Biological Chemistry, 2023):
Where two headings read alike, the source gives them in different places.

Columns and labels:
Design in all cases: made in house; host or cells: Escherichia coli
human P450 51A1 [1] = target: T1, human P450 51A1 (Homo sapiens, UniProt Q16850); test: Single-turnover rapid-quench kinetics of [3-3H]-dihydrolanosterol oxidation (radio-HPLC); format: biochemical
T1 sequence (Q16850 1-509): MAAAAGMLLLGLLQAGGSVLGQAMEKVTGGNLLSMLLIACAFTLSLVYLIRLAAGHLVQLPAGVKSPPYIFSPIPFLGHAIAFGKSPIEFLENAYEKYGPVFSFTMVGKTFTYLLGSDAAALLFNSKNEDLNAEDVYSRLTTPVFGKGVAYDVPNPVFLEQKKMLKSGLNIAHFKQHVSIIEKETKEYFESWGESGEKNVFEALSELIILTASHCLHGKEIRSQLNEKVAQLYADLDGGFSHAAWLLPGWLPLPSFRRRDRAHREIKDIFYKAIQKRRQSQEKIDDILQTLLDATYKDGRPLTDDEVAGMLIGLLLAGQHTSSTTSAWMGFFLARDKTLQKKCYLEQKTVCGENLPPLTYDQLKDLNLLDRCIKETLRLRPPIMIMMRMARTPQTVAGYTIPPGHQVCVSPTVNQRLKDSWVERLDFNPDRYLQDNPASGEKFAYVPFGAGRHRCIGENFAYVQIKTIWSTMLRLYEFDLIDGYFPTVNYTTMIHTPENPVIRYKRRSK
Description: All products were separated and quantified by radio-HPLC (Fig. S24).
Samples (held at 4 °C) were injected (45 μl) onto a Nova-Pak 3.9 mm × 150 mm (4 μm) octadecylsilane (C18) HPLC column (held at 23 °C). The products were separated at a flow rate of 1.0 ml min^−1 using an isocratic mobile phase composed of CH3CN (only) as was done for the LC-UV assays (above). The eluate from the column was mixed (1:2, v-v) with FlowLogic U scintillation cocktail, and radioactivity (^3H) was detected on a β-RAM Model 5 system (IN/US, LabLogic) (Fig. S24). Product formation was assessed as the relative contribution of each peak (in CPM) to the summed peak area of substrate and product(s).
The single-turnover experiments were performed using a KinTek rapid quench-flow apparatus (KinTek). This machine functions by forcing equal volumes (∼19 μl) of two separate solutions into a central mixing chamber, where the components are allowed to incubate for a predetermined period of time before an excess volume of quench solution (∼160 μl) stops the reaction and expels the mixture from the apparatus. […] After the predetermined incubation period, the reaction (37 °C) was quenched with HCl (1 M), and the mixture (∼200 μl) was collected into vials. The products of five identical reactions (time points) were combined and were extracted into CH2Cl2 (5 ml). An aliquot (4 ml) of the lower (organic) layer was removed into a fresh vial, and the extraction was repeated to maximize sample recovery. The pooled organic fraction (∼8 ml) was brought to dryness under a stream of N2 gas, and the residue was redissolved in 60 μl of CH3OH and transferred to LC vials for analysis.

human P450 51A1 [2] = target: T1, human P450 51A1; test: Spectral (difference spectroscopy) Kd estimates of P450 51A1-sterol complexes; format: binding
Description: Kd values were estimated by difference spectroscopy. P450 51A1 (1.0 μM) was in each of two glass cuvettes (in 100 mM potassium phosphate buffer, pH 7.4) and a baseline was recorded (OLIS-Amino DW2a). Aliquots of a solution of each sterol–HPCD complex were added to the sample cuvette and an equivalent amount of HPCD was added to the reference cuvette, and spectra were recorded. The time between the collection of individual spectra was ∼3 min. The maximum absorbance difference (usually ΔA390-A418) was plotted versus the nominal concentration of added sterol, and the data were fit to hyperbolae in GraphPad Prism software (GraphPad, https://www.graphpad.com), using a quadratic equation to correct the ligand concentration for the enzyme-bound concentration (used as Y=B+(A/2)∗(1/E)∗((Kd+E+X)-sqrt((Kd + E+X)^∧2-(4∗E∗X)) in Prism software). The linear regression fits include the internal error estimates (SE).

human P450 51A1 [3] = target: T1, human P450 51A1; test: Stopped-flow koff measurements of P450 51A1-sterol complexes with ketoconazole trap; format: binding; details: 23 °C, 10 μM ketoconazole trap, 1 μM P450 51A1
Description: All assays were done at 23 °C in an OLIS-RSM 1000 stopped-flow spectrophotometer, collecting data every 1 ms over a range of 332 to 565 nm with slit widths of 1.24 mm (8 nm bandpass) and gratings with 400 lines/mm and 500 nm blaze. One syringe contained 20 μM ketoconazole dissolved in 100 mM potassium phosphate buffer (pH 7.4). In a preliminary experiment in which this was mixed with an equal volume of 2 μM P450 51A1 (same buffer), the observed rate of binding (ΔA430) was 25 s^−1.
P450 51A1 (2 μM) was premixed with an equivalent concentration of each of the sterols (in HPCD). Each of these solutions was placed in a drive syringe and rapidly mixed with 20 μM ketoconazole (yielding final concentrations of 1 μM P450 51A1 and 10 μM ketoconazole). The rate of the ΔA430-A390 change was used as the koff rate, that is, the rate at which the sterol left the P450 and allowed it to bind to the trap ligand ketoconazole.

[4] = time 0.05 s, start 7 µM dihydrolanosterol
[5] = 1.0 μM P450 51A1, quadratic fit
[6] = 1.0 μM P450 51A1, quadratic fit, read-out: Kd

SMILES	concentration in single-turnover reaction (human P450 51A1 [1]; [4])	concentration in single-turnover reaction (human P450 51A1 [1]; time 0.1 s)	concentration in single-turnover reaction (human P450 51A1 [1]; time 0.15 s)	concentration in single-turnover reaction (human P450 51A1 [1]; time 0.2 s)	concentration in single-turnover reaction (human P450 51A1 [1]; time 0.3 s)	concentration in single-turnover reaction (human P450 51A1 [1]; time 0.4 s)	concentration in single-turnover reaction (human P450 51A1 [1]; time 0.6 s)	concentration in single-turnover reaction (human P450 51A1 [1]; time 0.8 s)	concentration in single-turnover reaction (human P450 51A1 [1]; time 1 s)	concentration in single-turnover reaction (human P450 51A1 [1]; time 1.2 s)	concentration in single-turnover reaction (human P450 51A1 [1]; time 1.6 s)	concentration in single-turnover reaction (human P450 51A1 [1]; time 2 s)	concentration in single-turnover reaction (human P450 51A1 [1]; time 3 s)	concentration in single-turnover reaction (human P450 51A1 [1]; time 4 s)	concentration in single-turnover reaction (human P450 51A1 [1]; time 7 s)	Kd (human P450 51A1 [2]; [5])	koff (human P450 51A1 [3])	Kd (human P450 51A1 [2]; [6])	further results
CC(C)CCCC(C)[C@H]1CC[C@@]2(C)C3=C(CC[C@]12C)[C@@]1(C)CC[C@H](O)C(C)(C)C1CC3 (stereo partly drawn) [dihydrolanosterol, 24,25-dihydrolanosterol]	4.7572 µM	2.9911 µM	2.8308 µM	1.974 µM	2.0671 µM	1.9166 µM	1.5253 µM	1.5841 µM	1.0563 µM	1.1711 µM	1.3601 µM	1.0864 µM	1.1137 µM	0.3647 µM	0 µM	sub-μM	0.054 ± 0.01 s⁻¹		kobs/Kd (human P450 51A1 [1]; first step, 7 s^−1/0.23 μM): 3e+07 M⁻¹ s⁻¹; fraction of initial material persisting until > 4 s (human P450 51A1 [1]; single turnover): ~20%; time in which the reaction was completed (human P450 51A1 [1]; single turnover): 7 s; time of 50% decrease of substrate concentration (human P450 51A1 [1]; single turnover): 0.10 s; first-order exponential decay rate of substrate concentration (human P450 51A1 [1]; single turnover, 37 °C): 8.7 s⁻¹; apparent rate of overall oxidation to dihydro FF-MAS, single exponential fit (human P450 51A1 [1]; single turnover, even with the lag): 0.8 s⁻¹; Kd (human P450 51A1 [2]): 230 ± 100 nM
CC(C)CCCC(C)[C@H]1CC[C@@]2(C=O)C3=C(CC[C@]12C)[C@@]1(C)CC[C@H](O)C(C)(C)C1CC3 (stereo partly drawn) [14α-CHO dihydrolanosterol, 24,25-dihydro-14α-formyl lanosterol]	0 µM	0.8505 µM	1.1396 µM	1.6401 µM	1.848 µM	1.8837 µM	1.7976 µM	1.4126 µM	1.4476 µM	1.3349 µM	0.8218 µM	0.7105 µM	0 µM	0 µM	0 µM	sub-μM	0.059 ± 0.001 s⁻¹	120 ± 30 nM	
CC(C)CCCC(C)[C@H]1CC[C@@]2(CO)C3=C(CC[C@]12C)[C@@]1(C)CC[C@H](O)C(C)(C)C1CC3 (stereo partly drawn) [14α-CH2OH dihydrolanosterol, 24,25-dihydro-14α-CH2OH lanosterol]	2.2428 µM	3.1584 µM	2.7482 µM	2.961 µM	2.3331 µM	1.9978 µM	1.1711 µM	0.9849 µM	0.4431 µM	0 µM	0 µM	0 µM	0 µM	0 µM	0 µM	sub-μM	0.022 ± 0.001 s⁻¹	20 ± 40 nM	
